Experimental data taken from patent publication US20250381179A1, “CHROMAN-BASED COMPOUNDS FOR TREATING CANCER” (priority 2024, published 2025).
Where two headings read alike, the source gives them in different places.

Experiments:
ERa [1] = biological target: T1, ERa (Homo sapiens, UniProt P03372); assay: Binding to human ERa; conditions: for IC50: read-out: half-maximal inhibitory concentration (IC50) (converted)
T1 sequence (P03372 1-595): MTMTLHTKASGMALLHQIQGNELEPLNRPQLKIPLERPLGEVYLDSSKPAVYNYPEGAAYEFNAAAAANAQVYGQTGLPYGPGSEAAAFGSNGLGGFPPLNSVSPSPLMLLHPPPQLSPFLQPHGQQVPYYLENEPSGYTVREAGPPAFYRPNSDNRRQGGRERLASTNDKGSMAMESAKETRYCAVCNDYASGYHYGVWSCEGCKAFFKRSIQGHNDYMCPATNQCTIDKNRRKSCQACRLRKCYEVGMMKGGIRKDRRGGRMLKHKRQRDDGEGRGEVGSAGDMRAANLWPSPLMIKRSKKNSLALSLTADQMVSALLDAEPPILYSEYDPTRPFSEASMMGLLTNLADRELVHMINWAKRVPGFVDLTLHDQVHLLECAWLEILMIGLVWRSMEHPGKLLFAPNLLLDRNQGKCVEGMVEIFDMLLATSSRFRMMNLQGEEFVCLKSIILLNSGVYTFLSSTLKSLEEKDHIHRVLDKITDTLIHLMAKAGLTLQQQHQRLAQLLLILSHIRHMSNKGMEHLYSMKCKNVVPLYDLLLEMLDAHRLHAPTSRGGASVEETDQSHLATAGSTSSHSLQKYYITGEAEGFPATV

ERa [2] = biological target: T1, ERa; assay: ERa degradation in ERa-positive breast cancer cell lines; format: cell-based; conditions: multiple ERa-positive breast cancer cell lines, such as MCF7
[3] = biological target: human cytochrome P450 CYP3A4 (Homo sapiens, UniProt P08684); assay: In vitro metabolism by CYP3A4; format: in vitro ADME
CYP2B6 = biological target: T2, CYP2B6 (Homo sapiens, UniProt P20813)
T2 sequence (P20813 1-491): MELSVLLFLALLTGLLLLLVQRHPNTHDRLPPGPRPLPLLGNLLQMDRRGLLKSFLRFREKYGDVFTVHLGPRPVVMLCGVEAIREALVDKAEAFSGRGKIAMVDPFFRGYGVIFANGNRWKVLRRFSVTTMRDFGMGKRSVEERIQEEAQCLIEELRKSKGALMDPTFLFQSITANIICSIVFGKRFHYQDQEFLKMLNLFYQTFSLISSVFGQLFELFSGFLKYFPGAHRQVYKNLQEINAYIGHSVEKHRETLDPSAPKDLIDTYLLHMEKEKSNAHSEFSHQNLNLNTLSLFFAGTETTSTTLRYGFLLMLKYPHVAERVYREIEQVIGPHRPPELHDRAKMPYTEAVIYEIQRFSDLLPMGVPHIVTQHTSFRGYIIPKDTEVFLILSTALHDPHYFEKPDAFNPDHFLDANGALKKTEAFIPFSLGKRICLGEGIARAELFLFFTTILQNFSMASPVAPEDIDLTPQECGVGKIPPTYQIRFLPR

Chain of human cytochrome P450 CYP3A4 (P08684 whole entry): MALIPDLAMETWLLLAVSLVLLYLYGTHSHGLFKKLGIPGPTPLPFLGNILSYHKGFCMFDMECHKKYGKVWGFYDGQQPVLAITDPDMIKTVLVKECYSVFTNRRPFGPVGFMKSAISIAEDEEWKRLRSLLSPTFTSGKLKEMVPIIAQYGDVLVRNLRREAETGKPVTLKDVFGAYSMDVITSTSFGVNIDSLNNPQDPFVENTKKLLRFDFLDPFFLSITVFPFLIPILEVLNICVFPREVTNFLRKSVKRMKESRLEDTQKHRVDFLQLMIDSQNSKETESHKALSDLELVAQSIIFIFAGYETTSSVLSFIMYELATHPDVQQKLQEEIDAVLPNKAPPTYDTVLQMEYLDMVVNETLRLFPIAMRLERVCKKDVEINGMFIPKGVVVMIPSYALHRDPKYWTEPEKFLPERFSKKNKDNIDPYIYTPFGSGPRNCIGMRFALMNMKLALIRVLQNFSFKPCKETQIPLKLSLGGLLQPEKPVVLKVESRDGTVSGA

SMILES: O=C1CC[C@H](N2Cc3cc(N4CCN(CC5CCN(c6ccc([C@@H]7c8ccc(O)cc8OC[C@@H]7c7ccccc7)cc6F)CC5)CC4)ccc3C2=O)C(=O)N1 [compound (1-g), (S)-3-(5-(4-((1-(2-fluoro-4-((3S,4R)-7-hydroxy-3-phenylchroman-4-yl)phenyl)piperidin-4-yl)methyl)piperazin-1-yl)-1-oxoisoindolin-2-yl)piperidine-2,6-dione]
- IC50 (ERa [1]): 6.02 nM
- Ki (ERa [1]; read-out: inhibitor constant (Ki)): 0.53 nM
- IC50 (ERa [1]; same value in ng/mL): 5.91 nM
- ERa degradation (ERa [2]): induces rapid ERa degradation
- metabolism by CYP3A4 [3]: weakly metabolized
- CYP2B6 time-dependent inhibition (CYP2B6): without showing time-dependent inhibition
- highest non-severely-toxic dose (HNSTD) (both, dog, in vivo, po, 28 day): 45 mg/kg/day
- off-target adverse toxicities (dog, in vivo): no off-target adverse toxicities observed
- key organ effects (dogs, 28-day GLP): considered on target pharmacological effects
